Patent US20070098781A1, “Modified release compositions for DPP-IV inhibitors” (priority 2005, published 2007)
Read-outs that look alike come from different tables or passages of the source. One block for each molecule: values may come before it.

Key:
[1] = Triple-cannulated cynomolgus monkey model: plasma PK after site-specific delivery; format: in vivo; conditions: 5 mg/kg; for AUC: plasma, 5 mg/kg in solution
Procedure: (§1) A study was conducted in an in-house cynomolgus monkey model, in which permanent cannulae had been surgically attached to various sections of their intestine. This animal model allows compounds to be delivered to precise regions of the intestine in the intact animal in vivo. A single dose cross-over study was performed in three animals, where 5 mg/kg of (2S)-1-{[1,1-Dimethyl-3-(4-pyridin-3-yl-imidazol-1-yl)-propylamino]-acetyl}-pyrrolidine-2-carbonitrile was delivered (with sufficient wash out periods in between), in solution by gavage to the stomach or via the cannulae to the duodenum, the jejunum-ileum junction or the top of the ascending colon, respectively. An oral glucose challenge was performed in each animal for each treatment 2 hours post-dose of compound (plus a pre-study control). Full plasma PK and DPPIV inhibition profiles were obtained for each treatment. Blood glucose profiles were measured for 3 hours post-glucose challenge.

plasma DPPIV = experiment: Triple-cannulated cynomolgus monkey model: plasma DPPIV inhibition after site-specific delivery; format: in vivo; conditions: for Mean Plasma DPPIV Inhibition: 5 mg/kg in solution
Procedure: as §1

blood glucose = experiment: Triple-cannulated cynomolgus monkey model: blood glucose after oral glucose challenge; format: in vivo; conditions: 5 mg/kg; for Mean Delta Glucose AUEC: oral glucose challenge 2 hours post-dose
Procedure: as §1

[2] = system: circulating markers (glucose, insulin, glucagon and GLP-1); experiment: Pharmacodynamic response after site-specific delivery: circulating markers following an oral glucose tolerance test (OGTT); format: in vivo, human; conditions: healthy volunteers, 400 mg; for Mean Delta Blood Glucose AUEC / Mean Plasma GLP-1 AUEC / Mean Plasma Insulin AUEC: OGTT 2 h after release, baseline corrected
Procedure: (§2) A pharmacoscintigraphic evaluation of the regional drug absorption and pharmacodynamics of (2S)-1-{[2-(5-Methyl-2-phenyl-oxazol-4-yl)-ethylamino]-acetyl}-pyrrolidine-2-carbonitrile mesylate in up to 9 healthy male or female volunteers following administration to four different sites of the gastrointestinal tract: stomach, proximal small bowel, ileum and ascending colon was carried out. The study was conducted as an open label, 4-way cross-over design consisting of 4 study periods of approximately 2-3 days duration, each separated by washout period of at least 4 days.
(§3) During each study period, 400 mg (2S)-1-{[2-(5-Methyl-2-phenyl-oxazol-4-yl)-ethylamino]-acetyl}-pyrrolidine-2-carbonitrile mesylate was delivered to the appropriate gastrointestinal target using Enterion™ capsule technology. The capsule was administered with water containing a radiolabelled marker (^99mTc-DTPA) which was used to define the gastrointestinal anatomy and the movement of the capsule was followed by means of an ^111In marker within the device. The location of both radiolabels was monitored on images obtained from a dual wavelength gamma camera. Capsule activation and thereby drug release was achieved by applying an external signal. The release was planned to occur within 5 hours of the administration of a standardised low calorie meal.
(§4) The pharmacokinetics of (2S)-1-{[2-(5-Methyl-2-phenyl-oxazol-4-yl)-ethylamino]-acetyl}-pyrrolidine-2-carbonitrile mesylate were determined after each administration by monitoring plasma concentrations of parent drug and metabolites. The pharmacodynamic response was assessed by measuring the concentrations of circulating markers (glucose, insulin, glucagon and GLP-1) for up to 4 hours following an oral glucose tolerance test (OGTT), which itself was carried out 2 hours after release of the drug substance. A control OGTT response (i.e. no drug treatment) was established for each subject before the first treatment period began.

[3] = Pharmacoscintigraphic evaluation of regional drug absorption: plasma pharmacokinetics after site-specific gastrointestinal delivery (Enterion capsule); format: in vivo, human; conditions: 400 mg, healthy volunteers; for AUC / Cmax: both sexes, human, plasma, oral; for AUC: read-out: Mean (SD) AUC; for Cmax: read-out: Mean (SD) Cmax
Procedure: as §2, §3, §4

[4] = delivery to the ileum-jejenum junction or colon, versus other sites
[5] = dosing region ascending colon (cannula)
[6] = dosing region duodenum (cannula)
[7] = dosing region ileum-jejunum junction (cannula)

systemic exposure to the compound [1, 4]: lowest systemic exposure
AUC [1, 5]: 354 ng·h/mL
AUC [1, 6]: 3890 ng·h/mL
AUC [1, 7]: 1350 ng·h/mL
AUC ([1]; po, dosing region stomach (gavage)): 2280 ng·h/mL
SMILES: CC(C)(CCn1cnc(-c2cccnc2)c1)NCC(=O)N1CCC[C@H]1C#N [(2S)-1-{[1,1-Dimethyl-3-(4-pyridin-3-yl-imidazol-1-yl)-propylamino]-acetyl}-pyrrolidine-2-carbonitrile]
Mean Plasma DPPIV Inhibition (plasma DPPIV; [5]): 45 % baseline
Mean Plasma DPPIV Inhibition (plasma DPPIV; [6]): 60 % baseline
Mean Plasma DPPIV Inhibition (plasma DPPIV; [7]): 45 % baseline
Mean Plasma DPPIV Inhibition (plasma DPPIV; dosing region stomach (gavage)): 65 % baseline
average plasma DPPIV inhibition (plasma DPPIV; 5 mg/kg, delivery to the ileum-jejenum junction or colon, versus other sites): lowest average plasma DPPIV inhibition
effect on glucose (blood glucose; [4]): highest effect on glucose
blood glucose compared to control (blood glucose; delivery to the stomach, ileum or the ascending colon): reduction in blood glucose
Mean Delta Glucose AUEC (blood glucose; dosing region ascending colon): 52 % Control
Mean Delta Glucose AUEC (blood glucose; dosing region duodenum): 116 % Control
Mean Delta Glucose AUEC (blood glucose; dosing region ileum-jejunum junction): 76 % Control
Mean Delta Glucose AUEC (blood glucose; dosing region stomach): 88 % Control

AUC ([3]; dosing region colon): 3540 ng·h/mL
Cmax ([3]; dosing region colon): 736 ng/mL
AUC ([3]; dosing region duodenum): 14200 ng·h/mL
Cmax ([3]; dosing region duodenum): 7580 ng/mL
AUC ([3]; dosing region ileum): 12300 ng·h/mL
Cmax ([3]; dosing region ileum): 5420 ng/mL
AUC ([3]; dosing region stomach): 12200 ng·h/mL
Cmax ([3]; dosing region stomach): 5570 ng/mL
absorption and elimination rate (plasma profiles) ([3]; all routes of administration except for the colon): broadly similar
period for which plasma concentrations were sustained ([3]; colon delivery): 6-8 hours post dose
plasma concentrations ([3]; colon delivery versus other routes): substantially lower
Average exposure ([3]; delivery to the proximal small bowel (duodenum) versus other sites): slighter greater
SMILES: CS(=O)(=O)O.Cc1oc(-c2ccccc2)nc1CCNCC(=O)N1CCC[C@H]1C#N [(2S)-1-{[2-(5-Methyl-2-phenyl-oxazol-4-yl)-ethylamino]-acetyl}-pyrrolidine-2-carbonitrile mesylate]
Mean Delta Blood Glucose AUEC ([2]; dosing region PSB): 130 % Control
Mean Plasma GLP-1 AUEC ([2]; dosing region PSB): 180 % Control
Mean Plasma Insulin AUEC ([2]; dosing region PSB): 160 % Control
Mean Delta Blood Glucose AUEC ([2]; dosing region colon): 83 % Control
Mean Plasma GLP-1 AUEC ([2]; dosing region colon): 87 % Control
Mean Plasma Insulin AUEC ([2]; dosing region colon): 101 % Control
Mean Delta Blood Glucose AUEC ([2]; dosing region ileum): 47 % Control
Mean Plasma GLP-1 AUEC ([2]; dosing region ileum): 340 % Control
Mean Plasma Insulin AUEC ([2]; dosing region ileum): 47 % Control
Mean Delta Blood Glucose AUEC ([2]; dosing region stomach): 55 % Control
Mean Plasma GLP-1 AUEC ([2]; dosing region stomach): 151 % Control
Mean Plasma Insulin AUEC ([2]; dosing region stomach): 65 % Control
Mean blood glucose area under the effect curve (AUEC) following an OGTT vs control ([2]; both stomach and ileal delivery): substantially decreased
active glucagon-like peptide 1 (primary mechanistic biomarker) ([2]; only ileal delivery): sustained systematic increase
